Structures can show the parent of a compound that is named as a salt.
Assays:
[1] = tested on: rabbit blood platelet aggregation; assay: inhibition of collagen-induced platelet aggregation in rabbit platelet-rich plasma (turbidometric method of Born); type: cell-based; conditions: Oryctolagus cuniculus, collagen 10 to 15 μg/ml, 37° C., 3 min preincubation, read-out: I50 (concentration inhibiting platelet aggregation by 50 percent)
Protocol: Evaluation of the compounds of this invention for their activity against platelet aggregation was carried out according to a turbidometric method described by G. V. R. Born, Nature 194 927 (1962). Platelet aggregation was measured using platelet-rich plasma prepared from citrated blood which was collected from a carotid artery of male white rabbits of Japanese native kind. A suspension of collagen (bovine Achilles tendon collagen, Sigma) in saline was used to cause platelet aggregation. The aggregation of rabbit blood platelet was induced by adding the suspension of collagen to give 10 to 15 μg collagen per milliliter. At this time, the tests were conducted at 37° C. at levels of 4×10^5 platelet/mm^3. A solution of compounds of this invention in saline was added to the platelet-rich plasma. After three minutes of preincubation with the platelet-rich plasma, collagen was added to cause platelet aggregation. Percent inhibition was calculated by comparison with controls.
Using the above procedure, the compounds of this invention were compared to aspirin.
(§1) The concentration of the compound in micromoles inhibiting platelet aggregation by 50 percent (I50) and LD50 which was calculated by Litchfield-Wilcoxon method are shown in Table 1.

[2] = LD50 i.p. in mice, calculated by Litchfield-Wilcoxon method; conditions: mouse, in vivo, ip, read-out: ID50 (the source's name)
Protocol: as §1

Row | SMILES | IC50 [1] | LD50 [2]
1 | CC(=O)Oc1ccccc1C(=O)O [Aspirin, aspirin, reference compound] | 25000 nM | 
2 | CN(C)CCOc1ccccc1CCc1ccccc1 [Example 1, 2-(2-dimethylaminoethoxy)bibenzyl hydrochloride] | 600 nM | 165 mg/kg
3 | CN(C)CCCOc1ccccc1CCc1ccccc1 [Example 2, 2-(3-dimethylaminopropoxy)bibenzyl hydrochloride] | 600 nM | 
4 | CN(C)CCCCOc1ccccc1CCc1ccccc1 [Example 3, 2-(4-dimethylaminobutoxy)bibenzyl] | 600 nM | 215 mg/kg
5 | CN(C)CCCCCOc1ccccc1CCc1ccccc1 [Example 4, 2-(5-dimethylaminopentyloxy)bibenzyl] | 800 nM | 205 mg/kg
6 | CN(C)CCCCCCOc1ccccc1CCc1ccccc1 [Example 5, 2-(6-dimethylaminohexyloxy)bibenzyl] | 1000 nM | 
7 | CNCCCCOc1ccccc1CCc1ccccc1 [Example 6, 2-(4-methylaminobutoxy)bibenzyl] | 7000 nM | 
8 | CCCCN(C)CCCCOc1ccccc1CCc1ccccc1 [Example 7, 2-[4-(N-methyl-N-butylamino)butoxy]bibenzyl] | 3000 nM | 
9 | CN(CCO)CCCCOc1ccccc1CCc1ccccc1 [Example 8, 2-{4-[N-methyl-N-(2-hydroxyethyl)amino]butoxy}bibenzyl] | 2000 nM | 
10 | c1ccc(CCc2ccccc2OCCCCN2CCCCC2)cc1 [Example 9, 2-(4-piperidinobutoxy)bibenzyl] | 1000 nM | 
11 | c1ccc(CCc2ccccc2OCCCCN2CCOCC2)cc1 [Example 10, 2-(4-morpholinobutoxy)bibenzyl] | 10000 nM | 
12 | c1ccc(CCc2ccccc2OCCCCN2CCNCC2)cc1 [Example 11, 2-[4-(1-piperazinyl)butoxy]bibenzyl dihydrochloride] | 2000 nM | 
13 | c1ccc(CCc2ccccc2OCCCCN2CCCC2)cc1 [Example 12, 2-[4-(1-pyrrolidinyl)butoxy]bibenzyl] | 700 nM | 
14 | OCCN1CCN(CCCCOc2ccccc2CCc2ccccc2)CC1 [Example 13, 2-{4-[4-(2-hydroxyethyl)-1-piperazinyl]butoxy}bibenzyl] | 3000 nM | 
15 | OCCN(CCO)CCCCOc1ccccc1CCc1ccccc1 [Example 14, 2-[4-bis(2-hydroxyethyl)aminobutoxy]bibenzyl] | 5000 nM | 
16 | CCN(CC)CCOc1ccccc1CCc1ccccc1 [Example 15, 2-(2-diethylaminoethoxy)bibenzyl] | 500 nM | 
17 | CCN(CC)CCCOc1ccccc1CCc1ccccc1 [Example 16, 2-(3-diethylaminopropoxy)bibenzyl] | 500 nM | 187 mg/kg
18 | CCN(CC)CCCCOc1ccccc1CCc1ccccc1 [Example 17, 2-(4-diethylaminobutoxy)bibenzyl] | 800 nM | 
19 | CCN(CC)CCCCCOc1ccccc1CCc1ccccc1 [Example 18, 2-(5-diethylaminopentyloxy)bibenzyl] | 1000 nM | 
20 | CCN(CC)CCCCCCOc1ccccc1CCc1ccccc1 [Example 19, 2-(6-diethylaminohexyloxy)bibenzyl] | 1000 nM | 
21 | CN(C)CCCOc1ccc(CCc2ccccc2)cc1 [Example 20, 4-(3-dimethylaminopropoxy)bibenzyl] | 2000 nM | 
22 | CN(C)CCCCOc1ccc(CCc2ccccc2)cc1 [Example 21, 4-(4-dimethylaminobutoxy)bibenzyl] | 2000 nM | 
23 | Cl.O=C(O)C1CCN(CCCCOc2ccccc2CCc2ccccc2)CC1 [Example 22, 2-[4-(4-carboxypiperidino)butoxy]bibenzyl hydrochloride] | 5500 nM | 500 mg/kg
24 | NC(=O)C1CCN(CCCCOc2ccccc2CCc2ccccc2)CC1 [Example 24, 2-[4-(4-carbamoylpiperidino)butoxy]bibenzyl] | 1500 nM | 500 mg/kg
25 | NC(=O)C1CCN(CCOc2ccccc2CCc2ccccc2)CC1 [Example 25, 2-[2-(4-carbamoylpiperidino)ethoxy]bibenzyl] | 2500 nM | 

Row | SMILES | IC50 [1] | LD50 [2]
26 | CN(C)C(=O)C1CCN(CCCCOc2ccccc2CCc2ccccc2)CC1 [Example 26, 2-[4-(4-dimethylcarbamoylpiperidino)butoxy]bibenzyl hydrochloride] | 3000 nM | 
27 | CCNC(=O)C1CCN(CCCCOc2ccccc2CCc2ccccc2)CC1 [Example 27, 2-[4-(4-ethylcarbamoylpiperidino)butoxy]bibenzyl] | 2500 nM | 
28 | NC(=O)C1CCCN(CCCCOc2ccccc2CCc2ccccc2)C1 (stereo not shown) [Example 29, 2-[4-(3-carbamoylpiperidino)butoxy]bibenzyl] | 1400 nM | 270 mg/kg
29 | NC(=O)C1CCN(CCCOc2ccccc2CCc2ccccc2)CC1 [Example 30, 2-[3-(4-carbamoylpiperidino)propoxy]bibenzyl] | 2000 nM | 
30 | COc1ccccc1CCc1ccccc1OCCN(C)C [Example 31, 2-(2-dimethylaminoethoxy)-2'-methoxybibenzyl] | 600 nM | 
31 | COc1ccccc1CCc1ccccc1OCCCCN(C)C [Example 32, 2-(4-dimethylaminobutoxy)-2'-methoxybibenzyl] | 900 nM | 250 mg/kg
32 | COc1cccc(CCc2ccccc2OCCCCN(C)C)c1 [Example 34, 2-(4-dimethylaminobutoxy)-3'-methoxybibenzyl] | 550 nM | 200 mg/kg
33 | COc1cccc(CCc2ccccc2OCCCCN2CCN(CCO)CC2)c1 [Example 35, 2-{4-[4-(2-hydroxyethyl)-1-piperazinyl]butoxy}-3'-methoxybibenzyl] | 1200 nM | 
34 | CCOc1ccccc1CCc1ccccc1OCCCCN(CC)CC [Example 37, 2-(4-diethylaminobutoxy)-2'-ethoxybibenzyl] | 1000 nM | 
35 | CN(C)CCCCOc1ccccc1CCc1ccccc1O [Example 38, 2-(4-dimethylaminobutoxy)-2'-hydroxybibenzyl] | 900 nM | 167 mg/kg
36 | COC(=O)c1ccccc1CCc1ccccc1OCCN(C)C [Example 41, 2-(2-dimethylaminoethoxy)-2'-methoxycarbonylbibenzyl] | 500 nM | 130 mg/kg
37 | CN(C)CCCOc1ccccc1CCc1ccc(Cl)cc1 [Example 44, 2-(3-dimethylaminopropoxy)-4'-chlorobibenzyl] | 600 nM | 185 mg/kg
38 | OCCN1CCN(CCCCOc2ccccc2CCc2ccc(Cl)cc2)CC1 [Example 45, 2-{4-[4-(2-hydroxyethyl)-1-piperazinyl]butoxy}-4'-chlorobibenzyl] | 3000 nM | 
39 | Clc1ccc(CCc2ccccc2OCCCCN2CCCC2)cc1 [Example 46, 2-[4-(1-pyrrolidinyl)butoxy]-4'-chlorobibenzyl] | 1300 nM | 
40 | CN(C)CCCCOc1ccccc1CCc1ccccc1Cl.Cl [Example 47, 2-(4-dimethylaminobutoxy)-2'-chlorobibenzyl hydrochloride] | 500 nM | 170 mg/kg
41 | CN(C)CCCCCCOc1ccccc1CCc1ccccc1Cl [Example 51, 2-(6-dimethylaminohexyloxy)-2'-chlorobibenzyl] | 800 nM | 250 mg/kg
42 | CN(C)CCCOc1ccccc1CCc1ccccc1Cl [Example 52, 2-(3-dimethylaminopropoxy)-2'-chlorobibenzyl] | 630 nM | 
43 | CN(C)CCCOc1ccccc1CCc1ccc(Cl)c(Cl)c1.Cl [Example 54, 2-(3-dimethylaminopropoxy)-3',4'-dichlorobibenzyl hydrochloride] | 600 nM | 250 mg/kg
44 | CN(C)CCCCOc1ccccc1CCc1ccc(F)cc1 [Example 55, 2-(4-dimethylaminobutoxy)-4'-fluorobibenzyl] | 750 nM | 185 mg/kg
45 | NC(=O)C1CCN(CCCCOc2ccccc2CCc2ccc(F)cc2)CC1 [Example 56, 2-[4-(4-carbamoylpiperidino)butoxy]-4'-fluorobibenzyl] | 1300 nM | 450 mg/kg
46 | OC1CCN(CCCCOc2ccccc2CCc2ccc(F)cc2)CC1 [Example 58, 2-[4-(4-hydroxypiperidino)butoxy]-4'-fluorobibenzyl] | 1100 nM | 
47 | Cc1ccccc1CCc1ccccc1OCCCCN(C)C [Example 61, 2-(4-dimethylaminobutoxy)-2'-methylbibenzyl] | 1100 nM | 
48 | Cc1ccccc1CCc1ccccc1OCCCCN1CCC(C(N)=O)CC1 [Example 63, 2-[4-(4-carbamoylpiperidino)butoxy]-2'-methylbibenzyl] | 2000 nM | 
49 | CN(C)CCCOc1ccccc1CCc1ccc(N(C)C)cc1 [Example 64, 2-(3-dimethylaminopropoxy)-4'-dimethylaminobibenzyl] | 350 nM | 
50 | COc1cccc(CCc2ccccc2)c1OCCCCN(C)C [Example 67, 2-(4-dimethylaminobutoxy)-3-methoxybibenzyl] | 3000 nM | 

— patent US4323568A, “Pharmaceutically active (omega-aminoalkoxy)bibenzyls” (Mitsubishi Chemical Industries Limited, priority 1977, dated 1982)
